Measured values as given in PubChem BioAssay AID1963850 (Molecular Pharmacology Branch, DTP, NCI, 2024).
Values joined by “and” are separate entries in the source; they are usually repeats but may differ in a detail not shown here. Identical values can stand only once.

System: 192522-019-R-J2-PDC complex tumor spheroid viability
Assay: Anticancer human tumor 192522-019-R-J2-PDC patient-derived colon adenocarcinoma cell line growth inhibition [POLQ]
Settings: for viability, T/C: stronger effect = lower value
Description: Multicellular complex tumor spheroid response to Polymerase (POL) inhibitors (novobiocin, ART-558, RP6685) in combination with a variety of drugs and investigational agents in selected tumor cell lines
The POL inhibitors (novobiocin, ART-558, and RP6685) were evaluated both individually and in combination with standard of care and investigational anticancer small molecules within a complex spheroid model of solid tumors. . Complex spheroids include a stromal component modeled by human endothelial cells (HUVEC) and fibroblasts modeled by human mesenchymal stem cells (MSCs). The concentration ranges selected for each drug and investigational agent were based upon clinically achievable concentrations if the clinical Cmax of the agent was known.
Compounds. The drugs and investigational agents: novobiocin (NSC847541), ART-558 (NSC835418), RP-6685 (NSC848927), peposertib (NSC802822), ceralasertib (NSC780249), elimusertib (NSC800525), camonsertib (NSC841442), AZD-1390 (NSC803789), olaparib (NSC753686), talazoparib (NSC767125), rucaparib (NSC756644), sotorasib (NSC818433), MRTX-1133 (NSC836407), SN-38 (NSC673596), topotecan (NSC609699), epotoside (NSC141540), doxorubicin (NSC123127), gemcitabine (NSC613327), 5-fluorouracil (NSC19893), paclitaxel (NSC125973), vemurafenib (NSC761431), MSA-2 (NSC828583), SN-011 (NSC837082), adavosertib (NSC754352), prexasertib (NSC758257), carboplatin (NSC241240) and oxaliplatin (NSC266046), were obtained from the National Cancer Institute (NCI) Developmental Therapeutics Program Chemical Repository (21). The FDA-approved anticancer drug set is available from the Developmental Therapeutics Program at https://dtp.cancer.gov/organization/dscb/obtaining/. […] The stock solutions were prepared in dimethyl sulfoxide (DMSO, Sigma-Aldrich, St. Louis, MO, cat. D2650), except for the platinum compounds which were prepared in saline (Quality Biological, Gaithersburg, MD, cat. 114-055-101), at 800-fold the tested concentration and stored at -70 degrees C prior to their use. All drugs and investigational agents were tested over a range starting from a high concentration at or near the clinical Cmax and decreasing in half-log increments. If the clinical Cmax for an agent had not been determined, the highest concentration tested was 10 microM, except for SN-38, which was tested at a high concentration of 1 microM.
Cell Culture. All cells were maintained in an incubator at 37 degrees C and 5% CO2 with 95% humidity. The PDC lines were cultured according to standard operating procedures established by the NCI PDMR (https://pdmr.cancer.gov). Table 3 of the manuscript, lists the cell lines along with the number of the three cell types plated to form the mct-spheroids and media for tumor cell growth. After thawing, all PDC lines, except 997537-175-T-J1-PDC and 415267-285-R-J2-PDC, were cultured in Matrigel-coated flasks prepared with a working solution of 1X Ham's F-12 nutrient mix, without supplementation (Thermo Fisher Scientific, cat. 11765054), 100 U/mL penicillin-streptomycin (Thermo Fisher Scientific, cat. 15140122), and 2.5% Matrigel (Corning Inc., Corning, NY, cat. 354248) for the first three passages. The two PDC lines 997537-175-T-J1-PDC and 415267-285-R-J2-PDC were cultured on uncoated flasks. The 857933-349-R-J2-PDC line was cultured in 6C/Colon 1B media containing advanced DMEM/F-12 (Thermo Fisher Scientific, cat. 12634028), 10 mM HEPES (Thermo Fisher Scientific, cat. 15630080), 1X GlutaMAX supplement (Thermo Fisher Scientific, cat. 35050061), 0.1 mg/mL primocin (InvivoGen, San Diego, CA, cat. ant-pm-2), 10% defined fetal bovine serum, heat inactivated (HyClone Laboratories Inc., Logan, UT, cat. SH30070.03HI), 50% L-WRN conditioned media (ATCC, cat. CRL-3276), 1.25 mM N-Acetyl-L-cysteine (Sigma-Aldrich, cat. A9165), 10 mM nicotinamide (Sigma-Aldrich, cat. N0636), 1X B-27 supplement (Thermo Fisher Scientific, cat. 17504044), 1X N-2 supplement (Thermo Fisher Scientific, cat. […]
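Note: spheroids exposed to drugs for seven days before reading.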
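Throughout, for viability, T/C: 100% = DMSO vehicle control viability in luminescence.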

SMILES: Nc1ccn(C2OC(CO)C(O)C2(F)F)c(=O)n1 (stereo not given)
- viability, T/C (compound 0.0316 µM): 100% and 102% and 104%
- viability, T/C (compound 0.1 µM): 83.2% and 86.6% and 83.9%
- viability, T/C (compound 0.316 µM): 72.9% and 76.2% and 66.8%
- viability, T/C (compound 1 µM): 78.3% and 79.2% and 66%
- viability, T/C (compound 3.16 µM): 71.9% and 82% and 62.9%
- viability, T/C (compound 10 µM): 50.5% and 62.5% and 58.2%
- IC50 (curve of compound): > 10 µM

SMILES: CC(=O)O[C@H]1C(=O)[C@@]2(C)[C@H]([C@H](OC(=O)c3ccccc3)[C@]3(O)C[C@H](OC(=O)[C@H](O)[C@@H](NC(=O)c4ccccc4)c4ccccc4)C(C)=C1C3(C)C)[C@]1(OC(C)=O)CO[C@@H]1C[C@@H]2O
- viability, T/C (compound 0.00949 µM): 90.9% and 93% and 91.4%
- viability, T/C (compound 0.03 µM): 61.5% and 61.7% and 71.9%
- viability, T/C (compound 0.0949 µM): 56.5% and 58.9% and 54.1%
- viability, T/C (compound 0.3 µM): 54.5% and 54.7% and 52.9%
- viability, T/C (compound 0.949 µM): 54.3% and 56.4% and 57.7%
- viability, T/C (compound 3 µM): 53% and 61.1% and 54.8%
- IC50 (curve of compound): > 3 µM

SMILES: CC[C@@]1(O)C(=O)OCc2c1cc1n(c2=O)Cc2cc3c(CN(C)C)c(O)ccc3nc2-1
- viability, T/C (compound 0.000316 µM): 113% and 103% and 94.6%
- viability, T/C (compound 0.001 µM): 94.3% and 94.9% and 92.1%
- viability, T/C (compound 0.00316 µM): 106% and 97.8% and 101%
- viability, T/C (compound 0.01 µM): 100% and 106% and 103%
- viability, T/C (compound 0.0316 µM): 91.9% and 95.4% and 91.8%
- viability, T/C (compound 0.1 µM): 70.9% and 76% and 51.1%
- IC50 (curve of compound): > 0.1 µM

SMILES: O=C(Nc1ccc(O)c(NS(=O)(=O)c2ccc(F)cc2)c1)c1ccc(-c2ccccc2)cc1
- viability, T/C (compound 0.0316 µM): 104% and 99.9% and 101%
- viability, T/C (compound 0.1 µM): 99.1% and 96.7% and 91.7%
- viability, T/C (compound 0.316 µM): 102% and 97.6% and 88.4%
- viability, T/C (compound 1 µM): 101% and 99.2% and 96%
- viability, T/C (compound 3.16 µM): 103% and 99.1% and 99.2%
- viability, T/C (compound 10 µM): 104% and 100% and 93.4%
- IC50 (curve of compound): > 10 µM

SMILES: Nc1ccn(C2OC(CO)C(O)C2(F)F)c(=O)n1 (stereo not given) + Cc1cccc(N(C)C(=O)C2C(O)CCN2c2nc(C)cc(C(F)(F)F)c2C#N)c1
- IC50 (curve of first compound, second compound 0.0316 µM): > 10 µM
- IC50 (curve of first compound, second compound 0.1 µM): > 10 µM
- IC50 (curve of first compound, second compound 0.316 µM): > 10 µM
- IC50 (curve of first compound, second compound 1 µM): > 10 µM
- IC50 (curve of first compound, second compound 3.16 µM): > 10 µM
- IC50 (curve of first compound, second compound 10 µM): > 10 µM
- viability, T/C (second compound 0.0316 µM, first compound 0.0316 µM): 95.9%
- viability, T/C (second compound 0.0316 µM, first compound 0.1 µM): 81.6%
- viability, T/C (second compound 0.0316 µM, first compound 0.316 µM): 81.8%
- viability, T/C (second compound 0.0316 µM, first compound 1 µM): 76.2%
- viability, T/C (second compound 0.0316 µM, first compound 3.16 µM): 70.3%
- viability, T/C (second compound 0.0316 µM, first compound 10 µM): 57.2%
- viability, T/C (second compound 0.1 µM, first compound 0.0316 µM): 95.9%
- viability, T/C (second compound 0.1 µM, first compound 0.1 µM): 95.7%
- viability, T/C (second compound 0.1 µM, first compound 0.316 µM): 80.6%
- viability, T/C (second compound 0.1 µM, first compound 1 µM): 76.5%
- viability, T/C (second compound 0.1 µM, first compound 3.16 µM): 66.6%
- viability, T/C (second compound 0.1 µM, first compound 10 µM): 55.5%
- viability, T/C (second compound 0.316 µM, first compound 0.0316 µM): 108%
- viability, T/C (second compound 0.316 µM, first compound 0.1 µM): 95.3%
- viability, T/C (second compound 0.316 µM, first compound 0.316 µM): 83.2%
- viability, T/C (second compound 0.316 µM, first compound 1 µM): 76.3%
- viability, T/C (second compound 0.316 µM, first compound 3.16 µM): 65.8%
- viability, T/C (second compound 0.316 µM, first compound 10 µM): 57.6%
- viability, T/C (second compound 1 µM, first compound 0.0316 µM): 104%
- viability, T/C (second compound 1 µM, first compound 0.1 µM): 90%
- viability, T/C (second compound 1 µM, first compound 0.316 µM): 80.6%
- viability, T/C (second compound 1 µM, first compound 1 µM): 79.9%
- viability, T/C (second compound 1 µM, first compound 3.16 µM): 72.3%
- viability, T/C (second compound 1 µM, first compound 10 µM): 56.5%
- viability, T/C (second compound 3.16 µM, first compound 0.0316 µM): 105%
- viability, T/C (second compound 3.16 µM, first compound 0.1 µM): 98.6%
- viability, T/C (second compound 3.16 µM, first compound 0.316 µM): 88.6%
- viability, T/C (second compound 3.16 µM, first compound 1 µM): 74%
- viability, T/C (second compound 3.16 µM, first compound 3.16 µM): 77%
- viability, T/C (second compound 3.16 µM, first compound 10 µM): 59.7%
- viability, T/C (second compound 10 µM, first compound 0.0316 µM): 108%
- viability, T/C (second compound 10 µM, first compound 0.1 µM): 83.4%
- viability, T/C (second compound 10 µM, first compound 0.316 µM): 80.5%
- viability, T/C (second compound 10 µM, first compound 1 µM): 74.3%
- viability, T/C (second compound 10 µM, first compound 3.16 µM): 76.5%
- viability, T/C (second compound 10 µM, first compound 10 µM): 62.3%
